Some results are limits rather than exact numbers.

From patent US8309546B2, “Morpholinopurine derivatives” (Daiichi Sankyo Company, Limited, priority 2008, dated 2012) come the findings set out here.

In one test the target is PI3Kα (Homo sapiens, UniProt P42336). In words: PI3K kinase activity inhibition assay. The test is classed as biochemical. Conditions: Kinase-Glo Plus ATP detection, read-out: IC50 against PI3K. In a few lines:
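PI3Kα (50 nM solution) was reacted with 30 μM ATP and 45 μM PIP2 solutions, each in HEPES pH 7.4 with MgCl2 and DTT, for 2 h at room temperature. Remaining ATP was measured by Kinase-Glo Plus luminescence, and inhibition was derived from ATP consumed. IC50 was taken from curve fitting of the serial dilutions.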
A general note: In Kinase-Glo more light means more ATP remaining.

Test [1] concerns human ovary cancer cell strain IGROV1. In words: Cell growth inhibition test (MTT), IGROV1. The test is classed as cell-based. Conditions: IGROV-1, 72 h, IGROV1, 3 days culture, read-out: concentration exhibiting anti-cell effect (GI50). In a few lines:
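Seed 5000/1000/5000 cells per well (AN3CA/IGROV1/HT29); add compound next day; culture 3 d, 37° C, 5% CO2; MTT 4 h, DMSO, A540. T/C % vs pre-dose baseline; GI50 from bracketing concentrations.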

The subject of test [2] is Akt (threonine 308) phosphorylation in AN3CA tumor. In words: Akt phosphorylation inhibition assay in xenograft. The class given is in vivo, female nude mouse. The conditions noted are these: Mus musculus, AN3-CA, oral, 6 hr after dosing. In short, it runs like this: (§1)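 AN3CA human endometrial cancer cells grown as subcutaneous xenografts in female nude mice; compound dosed orally at a set concentration, tumors excised after a set time. Tumor lysates at equal protein were western blotted for p-Akt(T308) and p-S6(S235/236). Inhibition (%) = 100−100×(treated/untreated phospho signal).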

The test system of test [3] is S6 (serine 235 and 236) phosphorylation in AN3CA tumor. The test is described as follows: S6 phosphorylation inhibition assay in xenograft. The test is classed as in vivo, female nude mouse. The conditions noted are these: Mus musculus, AN3-CA, oral, 6 hr after dosing. In a few lines: as §1

Chain of PI3Kα (P42336 whole entry, species assumed): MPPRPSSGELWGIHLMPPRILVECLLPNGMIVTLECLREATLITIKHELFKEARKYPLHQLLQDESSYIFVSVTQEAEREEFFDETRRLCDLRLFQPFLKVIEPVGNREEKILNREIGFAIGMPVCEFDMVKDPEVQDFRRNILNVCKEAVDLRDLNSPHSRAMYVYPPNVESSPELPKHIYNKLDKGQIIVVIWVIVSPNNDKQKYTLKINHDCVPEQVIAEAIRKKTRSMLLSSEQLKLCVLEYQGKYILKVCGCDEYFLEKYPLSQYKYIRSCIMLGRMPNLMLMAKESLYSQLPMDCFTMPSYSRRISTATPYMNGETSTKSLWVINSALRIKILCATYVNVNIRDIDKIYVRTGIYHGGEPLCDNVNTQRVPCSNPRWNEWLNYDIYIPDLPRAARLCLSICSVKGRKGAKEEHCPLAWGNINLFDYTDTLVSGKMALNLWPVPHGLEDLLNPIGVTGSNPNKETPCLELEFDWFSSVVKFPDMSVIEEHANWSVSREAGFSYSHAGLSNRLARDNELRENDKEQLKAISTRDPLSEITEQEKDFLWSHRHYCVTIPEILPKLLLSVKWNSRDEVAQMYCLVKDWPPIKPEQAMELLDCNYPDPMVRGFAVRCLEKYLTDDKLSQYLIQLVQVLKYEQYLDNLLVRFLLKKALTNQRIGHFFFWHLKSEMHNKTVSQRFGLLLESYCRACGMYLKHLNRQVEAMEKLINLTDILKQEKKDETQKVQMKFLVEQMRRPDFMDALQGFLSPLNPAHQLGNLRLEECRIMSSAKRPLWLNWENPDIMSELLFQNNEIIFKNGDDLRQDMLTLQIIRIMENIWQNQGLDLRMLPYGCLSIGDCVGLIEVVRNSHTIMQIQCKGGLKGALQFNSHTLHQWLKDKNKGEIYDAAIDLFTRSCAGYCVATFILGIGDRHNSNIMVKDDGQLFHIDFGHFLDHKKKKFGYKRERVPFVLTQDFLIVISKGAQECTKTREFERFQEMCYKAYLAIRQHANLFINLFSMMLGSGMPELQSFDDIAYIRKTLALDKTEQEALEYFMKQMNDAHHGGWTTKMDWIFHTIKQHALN
Chain of PI3Kα (P27986 whole entry partner, species assumed): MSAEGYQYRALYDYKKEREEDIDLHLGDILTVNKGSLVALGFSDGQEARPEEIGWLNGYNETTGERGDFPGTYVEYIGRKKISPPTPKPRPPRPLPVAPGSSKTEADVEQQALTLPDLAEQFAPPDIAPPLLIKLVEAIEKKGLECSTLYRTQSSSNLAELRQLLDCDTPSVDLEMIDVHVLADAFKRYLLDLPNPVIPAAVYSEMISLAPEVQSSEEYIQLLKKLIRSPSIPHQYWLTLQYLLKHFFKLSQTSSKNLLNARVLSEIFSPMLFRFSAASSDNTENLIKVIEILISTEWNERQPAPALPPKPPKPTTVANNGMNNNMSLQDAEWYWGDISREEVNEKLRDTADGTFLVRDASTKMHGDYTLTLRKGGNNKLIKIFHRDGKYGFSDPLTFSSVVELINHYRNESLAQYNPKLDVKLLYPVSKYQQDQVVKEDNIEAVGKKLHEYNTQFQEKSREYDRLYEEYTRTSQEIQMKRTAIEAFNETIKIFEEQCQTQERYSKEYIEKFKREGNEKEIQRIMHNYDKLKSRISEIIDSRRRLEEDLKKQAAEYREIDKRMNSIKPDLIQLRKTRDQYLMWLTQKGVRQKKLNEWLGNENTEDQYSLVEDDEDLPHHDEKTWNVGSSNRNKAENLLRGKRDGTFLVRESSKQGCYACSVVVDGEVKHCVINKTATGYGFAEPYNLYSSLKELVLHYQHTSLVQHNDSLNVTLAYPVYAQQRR

For the compound `CS(=O)(=O)N1CCN(c2nc3c(N4CCOCC4)nc(-c4cnc(N)nc4)nc3n2CC2CC2)CC1` [Example 3, 5-{9-(Cyclopropylmethyl)-8-[4-(methylsulfonyl)piperazin-1-yl]-6-morpholin-4-yl-9H-purin-2-yl}pyrimidin-2-amine], the IC50 (in general, the point on the concentration scale where inhibition reaches its midpoint) at PI3Kα was less than 10 nM. Moreover, the GI50 in test [1] is no more than 5000 nM. For the same compound, the inhibition (in general, the drop in the measured response relative to a control, in per cent) at 10 mg/kg is greater than 60% in test [2] and greater than 90% in test [3].
The like results for `C[C@@H](O)C(=O)N1CCN(c2nc3c(N4CCOCC4)nc(-c4cnc(N)nc4)nc3n2CC2CC2)C[C@@H]1C` [Example 113, (2R)-1-{(2S)-4-[2-(2-Aminopyrimidin-5-yl)-9-(cyclopropylmethyl)-6-morpholin-4-yl-9H-purin-8-yl]-2-methylpiperazin-1-yl}-1-oxopropan-2-ol] were, in that order, 10 to 20 nM, no more than 5000 nM, greater than 60% and greater than 90%.
The corresponding values for `C[C@H](O)C(=O)N1CCN(c2nc3c(N4CCOCC4)nc(-c4cnc(N)nc4)nc3n2CC(F)(F)F)C[C@H]1C` [Example 110, (2S)-1-{(2R)-4-[2-(2-Aminopyrimidin-5-yl)-6-morpholin-4-yl-9-(2,2,2-trifluoroethyl)-9H-purin-8-yl]-2-methylpiperazin-1-yl}-1-oxopropan-2-ol] are less than 10 nM, no more than 5000 nM, greater than 60% and greater than 90%.
For `CC(C)Cn1c(N2CCN(C(=O)C[C@@H](C)O)[C@H](C)C2)nc2c(N3CCOCC3)nc(-c3cnc(N)nc3)nc21` [Example 84, (2R)-4-{(2R)-4-[2-(2-Aminopyrimidin-5-yl)-9-isobutyl-6-morpholin-4-yl-9H-purin-8-yl]-2-methylpiperazin-1-yl}-4-oxobutan-2-ol], on PI3Kα, the IC50 was less than 10 nM. In addition, the GI50 in test [1] was no more than 5000 nM. Further, the figures for the inhibition at 10 mg/kg in test [2] and in test [3] were greater than 60% and greater than 90%, respectively.
Turning to `CC(C)Cn1c(N2CCN(C(=O)[C@@H](C)O)CC2)nc2c(N3CCOCC3)nc(-c3cnc(N)nc3)nc21` [Example 93], the IC50 on PI3Kα is less than 10 nM. Further, the GI50 in test [1] was no more than 5000 nM. The inhibition at 10 mg/kg is greater than 60% in test [2] and greater than 90% in test [3].
The like results for `Nc1ncc(-c2nc(N3CCOCC3)c3nc(N4CCN(C=O)CC4)n(CC(F)(F)F)c3n2)cn1` [Example 71, 4-[2-(2-Aminopyrimidin-5-yl)-6-morpholin-4-yl-9-(2,2,2-trifluoroethyl)-9H-purin-8-yl]piperazine-1-carboaldehyde] were, in that order, less than 10 nM, no more than 5000 nM, greater than 60% and greater than 90%.
The corresponding values for `C[C@H](O)C(=O)N1CCN(c2nc3c(N4CCOCC4)nc(-c4cnc(N)nc4)nc3n2CC2CC2)C[C@H]1C` [Example 95, (2S)-1-{(2R)-4-[2-(2-Aminopyrimidin-5-yl)-9-(cyclopropylmethyl)-6-morpholin-4-yl-9H-purin-8-yl]-2-methylpiperazin-1-yl}-1-oxopropan-2-ol] are 10 to 20 nM, no more than 5000 nM, greater than 60% and 70 to 90%.
The corresponding values for `C[C@H](O)C(=O)N1CCN(c2nc3c(N4CCOCC4)nc(-c4cnc(N)nc4)nc3n2CC2CC2)C[C@@H]1C` [Example 92, (2S)-1-{(2S)-4-[2-(2-Aminopyrimidin-5-yl)-9-(cyclopropylmethyl)-6-morpholin-4-yl-9H-purin-8-yl]-2-methylpiperazin-1-yl}-1-oxopropan-2-ol] are 10 to 20 nM, no more than 5000 nM, greater than 60% and greater than 90%.
Regarding `CC(C)Cn1c(N2CCN(C=O)CC2)nc2c(N3CCOC[C@@H]3C)nc(-c3cnc(N)nc3)nc21` [Example 132, 4-{2-(2-Aminopyrimidin-5-yl)-9-isobutyl-6-[(3S)-3-methylmorpholin-4-yl]-9H-purin-8-yl}piperazine-1-carboaldehyde], the IC50 on PI3Kα is less than 10 nM. Further, the GI50 in test [1] was no more than 5000 nM. The values for the inhibition at 10 mg/kg in test [2] and in test [3] were greater than 60% and greater than 90%, respectively.
The corresponding values for `CC(=O)C(=O)N1CCN(c2nc3c(N4CCOCC4)nc(-c4cnc(N)nc4)nc3n2CC(F)(F)F)CC1` [Example 65, 1-{4-[2-(2-Aminopyrimidin-5-yl)-6-morpholin-4-yl-9-(2,2,2-trifluoroethyl)-9H-purin-8-yl]piperazin-1-yl}-1-oxoacetone] are less than 10 nM, no more than 5000 nM, 30 to 60% and greater than 90%.
Regarding `CC(=O)N1[C@H](C)CN(c2nc3c(N4CCOCC4)nc(-c4cnc(N)nc4)nc3n2CC2CC2)C[C@@H]1C` [Example 98, 5-{8-[4-Acetyl-cis-3,5-dimethylpiperazin-1-yl]-9-(cyclopropylmethyl)-6-morpholin-4-yl-9H-purin-2-yl}pyrimidin-2-amine], at PI3Kα, the IC50 was less than 10 nM. In addition, the GI50 in test [1] was no more than 5000 nM. Also, the inhibition at 10 mg/kg is 30 to 60% in test [2] and greater than 90% in test [3].
Take `CN(C)C(=O)C(=O)N1CCN(c2nc3c(N4CCOCC4)nc(-c4cnc(N)nc4)nc3n2CC(F)(F)F)CC1` [Example 66, 2-{4-[2-(2-Aminopyrimidin-5-yl)-6-morpholin-4-yl-9-(2,2,2-trifluoroethyl)-9H-purin-8-yl]piperazin-1-yl}-N,N-dimethyl-2-oxoacetamide]: the 50% inhibitory concentration (IC50) on PI3Kα is less than 10 nM. In addition, in test [1], the GI50 was no more than 5000 nM. For the same compound, the values for the inhibition at 10 mg/kg in test [2] and in test [3] were 30 to 60% and 70 to 90%, respectively.
In the case of `CNc1ncc(-c2nc(N3CCOCC3)c3nc(N4CCN(C(C)=O)[C@H](C)C4)n(CC(F)(F)F)c3n2)cn1` [Example 108, 5-{8-[(3R)-4-Acetyl-3-methylpiperazin-1-yl]-6-morpholin-4-yl-9-(2,2,2-trifluoroethyl)-9H-purin-2-yl}-N-methylpyrimidin-2-amine], the 50% inhibitory concentration (IC50) on PI3Kα fell in the range of 10 to 20 nM. The GI50 in test [1] is no more than 5000 nM. Moreover, the inhibition at 10 mg/kg in test [2] was greater than 60%; in test [3], greater than 90%.
Consider `CNc1ncc(-c2nc(N3CCOCC3)c3nc(N4CCN(C(C)=O)CC4)n(CC(F)(F)F)c3n2)cn1` [Example 134, 5-[8-(4-Acetylpiperazin-1-yl)-6-morpholin-4-yl-9-(2,2,2-trifluoroethyl)-9H-purin-2-yl]-N-methylpyrimidin-2-amine], for which the IC50 on PI3Kα is less than 10 nM. Further, the GI50 in test [1] was no more than 5000 nM. For the same compound, the inhibition at 10 mg/kg in test [2] was 30 to 60%; in test [3], greater than 90%.
The like results for `C[C@H](O)C(=O)N1CCN(c2nc3c(N4CCOCC4)nc(-c4cnc(N)nc4)nc3n2CC2CC2)CC1` [Example 88, (2S)-1-{4-[2-(2-Aminopyrimidin-5-yl)-9-(cyclopropylmethyl)-6-morpholin-4-yl-9H-purin-8-yl]piperazin-1-yl}-1-oxopropan-2-ol] were, in that order, less than 10 nM, no more than 5000 nM, greater than 60% and 70 to 90%.
Turning to `CC(C)Cn1c(N2CCN(C(=O)[C@H](C)O)[C@H](C)C2)nc2c(N3CCOCC3)nc(-c3cnc(N)nc3)nc21` [Example 103, (2S)-1-{(2R)-4-[2-(2-Aminopyrimidin-5-yl)-9-isobutyl-6-morpholin-4-yl-9H-purin-8-yl]-2-methylpiperazin-1-yl}-1-oxopropan-2-ol], the IC50 on PI3Kα was 10 to 20 nM. Besides, in test [1], the GI50 is no more than 5000 nM. Also, the inhibition at 10 mg/kg in test [2] was greater than 60%; in test [3], greater than 90%.
The corresponding values for `CS(=O)(=O)N1CCN(c2nc3c(N4CCOCC4)nc(-c4cnc(N)nc4)nc3n2CC(F)F)CC1` [Example 64, 5-{9-(2,2-Difluoro-ethyl)-8-[4-(methylsulfonyl)piperazin-1-yl]-6-morpholin-4-yl-9H-purin-2-yl}pyrimidin-2-amine] are 10 to 20 nM, no more than 5000 nM, 30 to 60% and greater than 90%.
